Converted amounts (≈) assume the structure as drawn.
Key:
[1] = Induction of hemolysis in rat RBC assessed as hemoglobin release at 64 ug/ml after 1 hr by microplate reader analysis; assay type: cell-based, Erythrocyte; details: red blood cells, read-out: Activity
[2] = tested on: Shigella sonnei; assay: Antibacterial activity against O-antigen negative Shigella sonnei clinical isolate 6831 assessed as growth inhibition after 24 hrs by double dilution method; assay type: functional; details: isolate 6831, 24 h
[3] = tested on: Shigella sonnei; assay: Antibacterial activity against O-antigen positive Shigella sonnei clinical isolate 6831 assessed as growth inhibition after 24 hrs by double dilution method; assay type: functional; details: isolate 6831, 24 h
[4] = tested on: Pseudomonas aeruginosa; assay: Antibacterial activity against Pseudomonas aeruginosa ATCC 33347 assessed as growth inhibition after 24 hrs by double dilution method; assay type: functional; details: ATCC 33347, 24 h
[5] = tested on: Staphylococcus epidermidis; assay: Antibacterial activity against Staphylococcus epidermidis ATCC 12228 assessed as growth inhibition after 24 hrs by double dilution method; assay type: functional; details: ATCC 12228, 24 h
[6] = tested on: Staphylococcus epidermidis; assay: Antibacterial activity against Staphylococcus epidermidis ATCC 35984 assessed as growth inhibition after 24 hrs by double dilution method; assay type: functional; details: ATCC 35984, 24 h
[7] = tested on: Staphylococcus aureus; assay: Antibacterial activity against Staphylococcus aureus ATCC 9144 assessed as growth inhibition after 24 hrs by double dilution method; assay type: functional; details: ATCC 9144, 24 h
[8] = tested on: Enterococcus faecalis; assay: Antibacterial activity against Enterococcus faecalis ATCC 29212 assessed as growth inhibition after 24 hrs by double dilution method; assay type: functional; details: ATCC 29212, 24 h
[9] = tested on: Enterococcus; assay: Antibacterial activity against vancomycin-resistant Enterococcus assessed as growth inhibition after 24 hrs by double dilution method; assay type: functional
[10] = tested on: Streptococcus mutans; assay: Antibacterial activity against Streptococcus mutans UA159 assessed as growth inhibition after 24 hrs by double dilution method; assay type: functional; details: UA159, 24 h
[11] = tested on: Staphylococcus aureus; assay: Antibacterial activity against Methicillin-resistant Staphylococcus aureus assessed as growth inhibition after 24 hrs by double dilution method; assay type: functional
[12] = Antibacterial activity against Streptococcus pyogenes serotype M12 strain MGAS9429 assessed as growth inhibition after 24 hrs by double dilution method; assay type: functional; details: MGAS9429, 24 h
[13] = Induction of hemolysis in rat RBC assessed as hemoglobin release at 32 ug/ml after 1 hr by microplate reader analysis; assay type: cell-based, Erythrocyte; details: red blood cells, read-out: Activity
[14] = tested on: Staphylococcus epidermidis; assay: Antibacterial activity against Staphylococcus epidermidis ATCC 35984 assessed as biofilm growth inhibition after 24 hrs by double dilution method; assay type: functional
[15] = tested on: Streptococcus mutans; assay: Antibacterial activity against Streptococcus mutans UA159 assessed as biofilm growth inhibition after 24 hrs by double dilution method; assay type: functional
[16] = tested on: Streptococcus pyogenes serotype M12; assay: Ratio of tobramycin MIC to compound MIC against Streptococcus pyogenes serotype M12 strain MGAS9429 after 24 hrs by double dilution method; assay type: functional
[17] = Induction of hemolysis in rat RBC assessed as hemoglobin release at 128 ug/ml after 1 hr by microplate reader analysis; assay type: cell-based, Erythrocyte; details: red blood cells, read-out: Activity

| Structure (SMILES) | hemolysis at 1 h, 64 ug/ml [1] [%] | MIC [2] [µg/mL] | MIC [3] [µg/mL] | MIC [4] [µg/mL] | MIC [5] [µg/mL] | MIC [6] [µg/mL] | MIC [7] [µg/mL] | MIC [8] [µg/mL] | MIC [9] [µg/mL] | MIC [10] [µg/mL] | MIC [11] [µg/mL] | MIC [12] [µg/mL] | hemolysis at 1 h, 32 ug/ml [13] [%] | MBIC [14] [µg/mL] | MBIC [15] [µg/mL] | Ratio [16] | hemolysis at 1 h, 128 ug/ml [17] [%] |
| --- | --- | --- | --- | --- | --- | --- | --- | --- | --- | --- | --- | --- | --- | --- | --- | --- | --- |
| CCCCCCCCCCCCCCCCc1cn(C[C@H]2O[C@H](O[C@@H]3[C@@H](O)[C@H](O[C@H]4O[C@H](CN)[C@@H](O)C[C@H]4N)[C@@H](N)C[C@H]3N)[C@H](O)[C@@H](N)[C@@H]2O)nn1 | 37.9 | 64 (≈ 86.1 µM) | 128 (≈ 172 µM) | > 128 | 4 (≈ 5.38 µM) | 8 (≈ 10.8 µM) | 16 (≈ 21.5 µM) | 128 (≈ 172 µM) | 16 (≈ 21.5 µM) | 8 (≈ 10.8 µM) | 32 (≈ 43.1 µM) | 16 (≈ 21.5 µM) |  |  |  |  |  |
| CCCCCCCCCCCCCCc1cn(C[C@H]2O[C@H](O[C@@H]3[C@@H](O)[C@H](O[C@H]4O[C@H](CN)[C@@H](O)C[C@H]4N)[C@@H](N)C[C@H]3N)[C@H](O)[C@@H](N)[C@@H]2O)nn1 | 74.4 | 32 (≈ 44.8 µM) | 32 (≈ 44.8 µM) | 128 (≈ 179 µM) | 4 (≈ 5.59 µM) | 8 (≈ 11.2 µM) | 8 (≈ 11.2 µM) | 128 (≈ 179 µM) | 32 (≈ 44.8 µM) | 4 (≈ 5.59 µM) | 64 (≈ 89.5 µM) | 4 (≈ 5.59 µM) | 23 | 16 | 4 | 16 |  |
| CCCCCCCCCCCCCCCCC(=O)NC[C@H]1O[C@H](O[C@@H]2[C@@H](O)[C@H](O[C@H]3O[C@H](CN)[C@@H](O)C[C@H]3N)[C@@H](N)C[C@H]2N)[C@H](O)[C@@H](N)[C@@H]1O | 37.9 | 32 (≈ 44.5 µM) | 32 (≈ 44.5 µM) | 128 (≈ 178 µM) | 4 (≈ 5.56 µM) | 4 (≈ 5.56 µM) | 8 (≈ 11.1 µM) | 128 (≈ 178 µM) | 32 (≈ 44.5 µM) | 4 (≈ 5.56 µM) | 32 (≈ 44.5 µM) | 8 (≈ 11.1 µM) |  |  |  |  |  |
| NC[C@H]1O[C@H](O[C@H]2[C@H](O)[C@@H](O[C@H]3O[C@H](CO)[C@@H](O)[C@H](N)[C@H]3O)[C@H](N)C[C@@H]2N)[C@H](N)C[C@@H]1O [TOBRAMYCIN] |  | 32 (≈ 68.4 µM) | 16 (≈ 34.2 µM) | > 128 | < 1 | 128 (≈ 274 µM) | 16 (≈ 34.2 µM) | > 128 | > 128 | 128 (≈ 274 µM) | > 128 | 64 (≈ 137 µM) |  | 128 | 64 |  |  |
| CCCCCCCCCCCCCCCCS(=O)(=O)C[C@H]1O[C@H](O[C@@H]2[C@@H](O)[C@H](O[C@H]3O[C@H](CN)[C@@H](O)C[C@H]3N)[C@@H](N)C[C@H]2N)[C@H](O)[C@@H](N)[C@@H]1O | 37.9 | 128 (≈ 173 µM) | 32 (≈ 43.2 µM) | > 128 | 16 (≈ 21.6 µM) | 16 (≈ 21.6 µM) | 8 (≈ 10.8 µM) | 64 (≈ 86.5 µM) | 32 (≈ 43.2 µM) | 8 (≈ 10.8 µM) | 32 (≈ 43.2 µM) | 8 (≈ 10.8 µM) |  |  |  |  |  |
| CCCCCCCCCCCCCCCCSC[C@H]1O[C@H](O[C@@H]2[C@@H](O)[C@H](O[C@H]3O[C@H](CN)[C@@H](O)C[C@H]3N)[C@@H](N)C[C@H]2N)[C@H](O)[C@@H](N)[C@@H]1O | 37.9 | 64 (≈ 90.4 µM) | 32 (≈ 45.2 µM) | > 128 | 4 (≈ 5.65 µM) | 8 (≈ 11.3 µM) | 16 (≈ 22.6 µM) | 128 (≈ 181 µM) | 64 (≈ 90.4 µM) | 4 (≈ 5.65 µM) | 64 (≈ 90.4 µM) | 4 (≈ 5.65 µM) |  |  |  |  |  |
| CCCCCCCCCCCCSC[C@H]1O[C@H](O[C@@H]2[C@@H](O)[C@H](O[C@H]3O[C@H](CN)[C@@H](O)C[C@H]3N)[C@@H](N)C[C@H]2N)[C@H](O)[C@@H](N)[C@@H]1O |  | 64 (≈ 98.2 µM) | 32 (≈ 49.1 µM) | 128 (≈ 196 µM) | 8 (≈ 12.3 µM) | 8 (≈ 12.3 µM) | 16 (≈ 24.5 µM) | 128 (≈ 196 µM) | 64 (≈ 98.2 µM) | 8 (≈ 12.3 µM) | 64 (≈ 98.2 µM) | 8 (≈ 12.3 µM) |  | 16 | 4 |  | 71.6 |
| CCCCCCCCCCCCc1cn(C[C@H]2O[C@H](O[C@@H]3[C@@H](O)[C@H](O[C@H]4O[C@H](CN)[C@@H](O)C[C@H]4N)[C@@H](N)C[C@H]3N)[C@H](O)[C@@H](N)[C@@H]2O)nn1 | 26.3 | 64 (≈ 93.2 µM) | 64 (≈ 93.2 µM) | 64 (≈ 93.2 µM) | 16 (≈ 23.3 µM) | 8 (≈ 11.6 µM) | 16 (≈ 23.3 µM) | 128 (≈ 186 µM) | 32 (≈ 46.6 µM) | 4 (≈ 5.82 µM) | 128 (≈ 186 µM) | 8 (≈ 11.6 µM) |  | 16 | 4 |  | 89.1 |
| CCCCCCCCCCCCCCSC[C@H]1O[C@H](O[C@@H]2[C@@H](O)[C@H](O[C@H]3O[C@H](CN)[C@@H](O)C[C@H]3N)[C@@H](N)C[C@H]2N)[C@H](O)[C@@H](N)[C@@H]1O | 74.4 | 32 (≈ 47.1 µM) | 16 (≈ 23.5 µM) | 128 (≈ 188 µM) | 4 (≈ 5.88 µM) | 4 (≈ 5.88 µM) | 8 (≈ 11.8 µM) | 64 (≈ 94.1 µM) | 16 (≈ 23.5 µM) | 2 (≈ 2.94 µM) | 32 (≈ 47.1 µM) | 2 (≈ 2.94 µM) | 23 | 8 | 4 | 16 |  |
| CCCCCCCCCCCCCCS(=O)(=O)C[C@H]1O[C@H](O[C@@H]2[C@@H](O)[C@H](O[C@H]3O[C@H](CN)[C@@H](O)C[C@H]3N)[C@@H](N)C[C@H]2N)[C@H](O)[C@@H](N)[C@@H]1O | 74.4 | 64 (≈ 89.9 µM) | 32 (≈ 44.9 µM) | 128 (≈ 180 µM) | 16 (≈ 22.5 µM) | 16 (≈ 22.5 µM) | 16 (≈ 22.5 µM) | 64 (≈ 89.9 µM) | 32 (≈ 44.9 µM) | 4 (≈ 5.62 µM) | 64 (≈ 89.9 µM) | 4 (≈ 5.62 µM) | 23 | 8 | 4 |  |  |
| CCCCCCCCCCCCCCC(=O)NC[C@H]1O[C@H](O[C@@H]2[C@@H](O)[C@H](O[C@H]3O[C@H](CN)[C@@H](O)C[C@H]3N)[C@@H](N)C[C@H]2N)[C@H](O)[C@@H](N)[C@@H]1O | 74.4 | 32 (≈ 46.3 µM) | 16 (≈ 23.2 µM) | 128 (≈ 185 µM) | 4 (≈ 5.79 µM) | 4 (≈ 5.79 µM) | 8 (≈ 11.6 µM) | 64 (≈ 92.6 µM) | 32 (≈ 46.3 µM) | 4 (≈ 5.79 µM) | 32 (≈ 46.3 µM) | 4 (≈ 5.79 µM) | 23 | 8 | 4 | 16 |  |
